From patent publication US11065253B2, “Arylquinazolines” (Merck Patent GmbH, priority 2013, dated 2021)

What follows are compounds tested on phospho-serine 2056 DNA-PK in HCT116 cells (assay: DNA-PK phosphorylation at serine 2056 (cellular), ELISA in bleomycin-treated HCT116 cells). Conditions: Homo sapiens, HCT-116, 6 h, cellular; HCT116 cells, 10 μM bleomycin, six hours; read-out: IC50 pDNA-PK.
Assay type: cell-based
Summary of the method: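 Test compounds and bleomycin (10 μM) are added to adherent HCT116 cells for 6 h. Detection uses an HRP-based chemiluminescent ELISA, with phospho-DNA-PK signals standardised to total protein.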
For `OC(c1ccc(F)c(-c2ncnc3cc(N4CCOCC4)ccc23)c1)c1ncccc1C(F)(F)F` (centres unmarked) [Example 80, [4-Fluoro-3-(7-morpholin-4-yl-quinazolin-4-yl)-phenyl]-(3-trifluoro-methylpyridin-2-yl)-methanol], the IC50 was 0.5 to 5 µM.
`OC(c1cc(-c2ncnc3cc(N4CCOCC4)ccc23)ccc1Cl)c1ncnc2ccsc12` (centres unmarked) [Example 89, [2-Chloro-5-(7-morpholin-4-yl-quinazolin-4-yl)-phenyl]thieno[3,2-d}-pyrimidin-4-ylmethanol] was tested, and the IC50 was less than 0.5 µM.
`O=C(O)c1ccc(C(O)c2cc(-c3ncnc4cc(N5CCOCC5)ccc34)c(F)cc2Cl)nn1` (centres unmarked) [Example 55, 6-{[2-Chloro-4-fluoro-5-(7-morpholin-4-yl-quinazolin-4-yl)phenyl]-hydroxymethyl}-pyridazine-3-carboxylic acid] gave an IC50 of 10 to 30 µM.
`Cc1nccnc1[C@@H](O)c1ccc(F)c(-c2ncnc3cc(N4CCOCC4)ccc23)c1` [Example 82, (S)-[4-Fluoro-3-(7-morpholin-4-yl-quinazolin-4-yl)-phenyl]-(3-methyl-pyrazin-2-yl)methanol] showed an IC50 of 0.5 to 5 µM.
`O=c1ccc(C(O)c2cc(-c3ncnc4cc(N5CCOCC5)ccc34)c(F)cc2Cl)nn1CCO` (centres unmarked) [Example 99, 6-{[2-Chloro-4-fluoro-5-(7-morpholin-4-yl-quinazolin-4-yl)phenyl]-hydroxymethyl}-2-(2-hydroxy-ethyl)-2H-pyridazin-3-one] was tested, and the IC50 was 0.5 to 5 µM.

Same assay, conditions: Homo sapiens, HCT-116, cellular DNA-PK phosphorylation at serine 2056, HCT116 cells; read-out: IC50 pDNA-PK
In the case of `Cn1cnc2c(C(O)c3ccc(F)c(-c4ncnc5cc(N6CCOCC6)ccc45)c3)ncnc21` (centres unmarked) [Example 420, [4-Fluoro-3-(7-morpholin-4-yl-quinazolin-4-yl)-phenyl]-(9-methyl-9H-purin-6-yl)-methanol], the IC50 is reported as 5 to 10 µM.
In the case of `OC(c1cc(-c2ncnc3cc(N4CCOCC4)ccc23)ccc1Cl)c1ncnc2sccc12` (centres unmarked) [Example 430, [2-Chloro-5-(7-morpholin-4-yl-quinazolin-4-yl)-phenyl]thieno[2,3-d}-pyrimidin-4-yl-methanol], the IC50 is reported as less than 0.5 µM.
For `Cn1ncc2c(C(O)c3cc(-c4ncnc5cc(N6CCOCC6)ccc45)c(F)cc3F)ncnc21` (centres unmarked) [Example 403, [2,4-Difluoro-5-(7-morpholin-4-yl-quinazolin-4-yl)-phenyl]-(1-methyl-1H-pyrazolo[3,4-d}-pyrimidin-4-yl)-methanol], the IC50 was 0.5 to 5 µM.
With `OC(c1cc(-c2ncnc3cc(N4CCOCC4)ccc23)c(F)cc1F)c1ncnc2ccsc12` (centres unmarked) [Example 439, [2,4-Difluoro-5-(7-morpholin-4-yl-quinazolin-4-yl)-phenyl]thieno[3,2-d}-pyrimidin-4-yl-methanol] the IC50 was less than 0.5 µM.

Same assay, conditions: Homo sapiens, HCT-116, phospho-serine 2056 DNA-PK, bleomycin-treated HCT116 cells; class symbols A-D; read-out: IC50 pDNA-PK
Work on `COC(c1ccc(F)c(-c2ncnc3cc(N4CCOCC4)ccc23)c1)c1nccs1` (centres unmarked) [Example 177, 4-[2-Fluoro-5-(-methoxythiazol-2-ylmethyl)phenyl]-7-morpholin-4-yl-quinazoline] yielded an IC50 of 10 to 30 µM.
For `CNCc1csc(C(O)c2cc(-c3ncnc4cc(N5CCOCC5)ccc34)c(F)cc2Cl)n1` (centres unmarked) [Example 143, [2-Chloro-4-fluoro-5-(7-morpholin-4-yl-quinazolin-4-yl)-phenyl]-(4-methylamino-methyl-thiazol-2-yl)-methanol], the IC50 was 5 to 10 µM.
`COc1ccc(C(O)c2cc(-c3ncnc4cc(N5CCOCC5)ccc34)c(F)cc2F)c(F)c1` (centres unmarked) [Example 124, [2,4-Difluoro-5-(7-morpholin-4-yl-quinazolin-4-yl)-phenyl]-(2-fluoro-4-methoxy-phenyl)methanol] showed an IC50 of 0.5 to 5 µM.
Compound `N#Cc1ccc(C(O)c2cc(-c3ncnc4cc(N5CCOCC5)ccc34)c(F)cc2Cl)nn1` (centres unmarked) [Example 118, 6-{[2-Chloro-4-fluoro-5-(7-morpholin-4-yl-quinazolin-4-yl)-phenyl]hydroxy-methyl}pyridazine-3-carbonitrile] has an IC50 of 0.5 to 5 µM.

Same assay, conditions: Homo sapiens, HCT-116, phospho-serine 2056 DNA-PK, bleomycin-treated HCT116 cells; read-out: IC50 pDNA-PK
Compound `Cc1nccnc1[C@H](O)c1ccc(F)c(-c2ncnc3cc(N4CCOCC4)cnc23)c1` [Example 234, (R)-[4-Fluoro-3-(7-morpholin-4-yl-pyrido[3,2-d}-pyrimidin-4-yl)-phenyl]-(3-methyl-pyrazin-2-yl)-methanol] has an IC50 of less than 0.5 µM.
`OC(c1cc(-c2ncnc3cc(N4CCOCC4)ccc23)c(F)cc1Cl)c1nccn2cccc12` (centres unmarked) [Example 359, [2-Chloro-4-fluoro-5-(7-morpholin-4-yl-quinazolin-4-yl)-phenyl]pyrrolo[1,2-a]-pyrazin-1-ylmethanol] showed an IC50 of less than 0.5 µM.
Compound `CNC(=O)C(c1cc(-c2ncnc3cc(N4CCOCC4)ccc23)c(F)cc1Cl)c1nccnc1OC` (centres unmarked) [Example 229, 2-[2-Chloro-4-fluoro-5-(7-morpholin-4-yl-quinazolin-4-yl)-phenyl]-2-(3-methoxypyrazin-2-yl)-N-methyl-acetamide] has an IC50 of 0.5 to 5 µM.
Work on `OC(c1cc(-c2ncnc3cc(N4CCOCC4)ccc23)c(F)cc1F)c1nccn2cccc12` (centres unmarked) [Example 358, [2,4-Difluoro-5-(7-morpholin-4-yl-quinazolin-4-yl)-phenyl]pyrrolo[1,2-a]-pyrazin-1-ylmethanol] yielded an IC50 of less than 0.5 µM.
In the case of `Cc1nccnc1[C@@H](O)c1ccc(F)c(-c2ncnc3cc(N4CCOCC4)cnc23)c1` [Example 233, (S)-[4-Fluoro-3-(7-morpholin-4-yl-pyrido[3,2-d}-pyrimidin-4-yl)-phenyl]-(3-methyl-pyrazin-2-yl)-methanol], the IC50 is reported as 10 to 30 µM.
In the case of `COc1nccnc1C(C(N)=O)c1cc(-c2ncnc3cc(N4CCOCC4)ccc23)c(F)cc1Cl` (centres unmarked) [Example 320, 2-[2-Chloro-4-fluoro-5-(7-morpholin-4-yl-quinazolin-4-yl)-phenyl]-2-(3-methoxy-pyrazin-2-yl)acetamide], the IC50 is reported as 0.5 to 5 µM.
`NC(=O)C(c1ccc2nccn2n1)c1cc(-c2ncnc3cc(N4CCOCC4)ccc23)c(F)cc1Cl` (centres unmarked) [Example 323, 2-[2-Chloro-4-fluoro-5-(7-morpholin-4-yl-quinazolin-4-yl)-phenyl]-2-imidazo-[1,2-b]pyridazin-6-yl-acetamide] showed an IC50 of 0.5 to 5 µM.

Same assay, conditions: cellular DNA-PK phosphorylation at serine 2056, HCT116 cells; read-out: IC50 pDNA-PK
`Cc1nccnc1C(O)c1cc(-c2ncnc3cc(N4CCOCC4)ccc23)ccc1Cl` (centres unmarked) [Example 427, [2-Chloro-5-(7-morpholin-4-yl-quinazolin-4-yl)-phenyl]-(3-methyl-pyrazin-2-yl)-methanol (Ena 1)] was tested, and the IC50 was 0.5 to 5 µM.
With `OC(c1cccnn1)c1cc(-c2ncnc3cc(N4CCOCC4)ccc23)ccc1Cl` (centres unmarked) [Example 470, [2-Chloro-5-(7-morpholin-4-yl-quinazolin-4-yl)-phenyl]pyridazin-3-yl-methanol] the IC50 was less than 0.5 µM.
`OC(c1cc(-c2ncnc3cc(N4CCOCC4)ccc23)c(F)cc1F)c1nccnc1OC(F)F` (centres unmarked) [Example 449, (3-Difluoromethoxy-pyrazin-2-yl)-[2,4-difluoro-5-(7-morpholin-4-yl-quinazolin-4-yl)-phenyl]methanol] was tested, and the IC50 was 0.5 to 5 µM.
`OC(c1cc(-c2ncnc3cc(N4CCOCC4)ccc23)c(F)cc1F)c1ncnc2ccoc12` (centres unmarked) [Example 446, [2,4-Difluoro-5-(7-morpholin-4-yl-quinazolin-4-yl)-phenyl]furo[3,2-d}-pyrimidin-4-yl-methanol] gave an IC50 of 0.5 to 5 µM.
In the case of `Cn1c(C(O)c2ccc(F)c(-c3ncnc4cc(N5CCOCC5)ccc34)c2)cccc1=O` (centres unmarked) [Example 376, 6-{[4-Fluoro-3-(7-morpholin-4-yl-quinazolin-4-yl)-phenyl]hydroxy-methyl}-1-methyl-1H-pyridin-2-one (Ena 1)], the IC50 is reported as less than 0.5 µM.

Same assay, conditions: cellular; HCT116 cells, 10 μM bleomycin, six hours; read-out: IC50 pDNA-PK
`COc1nccnc1C(O)c1ccc(F)c(-c2ncnc3cc(N4CCOCC4)ccc23)c1` (centres unmarked) [Example 38, [4-Fluoro-3-(7-morpholin-4-yl-quinazolin-4-yl)phenyl]-(3-methoxy-pyrazin-2-yl)methanol] gave an IC50 of less than 0.5 µM.
